{"source": "patent US20070122422A1", "about": "“Sodium-independent small neutral amino acid transporter transporting L- and D- amino acids” (Japan Science and Technology Corporation, priority 2000, published 2007)", "type_in_all_cases": "cell-based", "key": {"[1]": {"molecular_target": "T1, intracellular substrate-binding site of asc-1 of mouse (Mus musculus, UniProt P63115)", "T1 construct": "expressed in transfected cells; host or cells: Xenopus oocytes injected with cRNA", "T1 sequence (P63115 1-530)": "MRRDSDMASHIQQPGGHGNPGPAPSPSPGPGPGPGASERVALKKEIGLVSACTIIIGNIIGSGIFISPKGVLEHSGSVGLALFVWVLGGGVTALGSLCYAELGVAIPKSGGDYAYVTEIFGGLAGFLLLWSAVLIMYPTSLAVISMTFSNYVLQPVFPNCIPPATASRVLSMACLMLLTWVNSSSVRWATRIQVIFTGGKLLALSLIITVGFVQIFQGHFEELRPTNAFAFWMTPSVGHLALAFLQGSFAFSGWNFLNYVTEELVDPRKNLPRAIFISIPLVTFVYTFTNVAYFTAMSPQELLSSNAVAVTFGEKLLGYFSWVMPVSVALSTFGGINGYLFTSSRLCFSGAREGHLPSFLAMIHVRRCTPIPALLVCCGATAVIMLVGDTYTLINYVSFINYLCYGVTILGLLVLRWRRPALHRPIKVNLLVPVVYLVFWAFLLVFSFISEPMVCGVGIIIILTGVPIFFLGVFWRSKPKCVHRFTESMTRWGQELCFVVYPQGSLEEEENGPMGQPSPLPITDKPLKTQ", "T1 sequence (P10852 1-526 partner)": "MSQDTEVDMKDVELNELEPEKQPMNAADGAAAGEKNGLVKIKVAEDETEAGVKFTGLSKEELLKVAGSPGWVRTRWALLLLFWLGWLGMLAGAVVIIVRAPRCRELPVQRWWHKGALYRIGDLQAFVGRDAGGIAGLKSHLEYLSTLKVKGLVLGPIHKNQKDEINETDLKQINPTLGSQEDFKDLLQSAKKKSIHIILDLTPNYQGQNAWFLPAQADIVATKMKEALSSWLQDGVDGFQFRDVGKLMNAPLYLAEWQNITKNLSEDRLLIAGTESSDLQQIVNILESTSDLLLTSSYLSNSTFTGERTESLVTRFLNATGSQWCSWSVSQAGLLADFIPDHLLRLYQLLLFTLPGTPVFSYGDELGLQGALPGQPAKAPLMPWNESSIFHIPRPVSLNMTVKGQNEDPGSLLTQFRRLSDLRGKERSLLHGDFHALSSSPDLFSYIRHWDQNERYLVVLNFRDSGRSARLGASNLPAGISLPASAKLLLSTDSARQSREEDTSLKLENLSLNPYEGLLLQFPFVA", "assay": "Release of injected 14C-amino acid from oocytes co-expressing asc-1 and 4F2hc on extracellular alanine", "details": "alanine 100 μM added to Na+-free uptake solution", "experimental": "In oocytes into which cRNA of asc-1 gene and cRNA of 4F2hc gene of mouse were injected together, release of preloaded ^14C-amino acid mediated by asc-1 was checked whereby the substrate selectivity of intracellular substrate-binding site of asc-1 was checked.\n^14C-Amino acid (˜3nCi) of 100 μM in an amount of 100 nl was injected into the oocytes into which both asc-1 gene cRNA and 4F2hc gene cRNA of mouse were injected together, washed with an ice-cooled Na^+-free uptake solution containing no alanine and transferred to a Na^+-free uptake solution to which alanine (100 μM) was added or not added at room temperature (18° C.-22° C.) and the amount of ^14C-amino acid released outside the cells was measured.\nBlack bars in FIG. 21 show the case where alanine was added to a Na^+-free uptake solution while bars with oblique lines show the case where alanine was not added to a Na^+-free uptake solution."}, "[2]": {"molecular_target": "T2, asc-1 of mouse (co-expressed with 4F2hc of mouse) (Mus musculus, UniProt P63115)", "T2 construct": "expressed in transfected cells; host or cells: Xenopus oocytes injected with cRNA", "T2 sequence (P63115 1-530)": "T1 sequence (P63115 1-530)", "T2 sequence (P10852 1-526 partner)": "T1 sequence (P10852 1-526 partner)", "assay": "Incorporation of radiolabeled amino acids and analogs by oocytes co-expressing asc-1 and 4F2hc", "details": "for incorporation into the oocytes as substrate: radiolabeled substrate, oocytes expressing both asc-1 and 4F2hc, Na+-free uptake solution; for transport by asc-1 (affinity in words): summary statement, asc-1 co-existing with 4F2hc", "experimental": "Incorporation of alanine when asc-1 gene cRNA of mouse was solely expressed in oocytes of Xenopus and when asc-1 gene cRNA of mouse and 4F2hc gene cRNA of mouse were expressed in oocytes of Xenopus together was compared.\n(§1) Into oocytes were injected 12 ng of asc-1 gene cRNA of mouse, 13 ng of 4F2hc gene cRNA of mouse or 12 ng asc-1 gene cRNA of mouse/13 ng of 4F2hc gene cRNA of mouse to express followed by incubating for 3 days. […] Thus, the oocytes were allowed to stand for 30 minutes in a Na^+-free uptake solution [100 mM choline chloride, 2 mM potassium chloride, 1.8 mM calcium chloride, 1 mM magnesium chloride, 5 mM HEPES; pH 7.4] containing ^14C-alanine (100 μM) as a substrate and the rate of the substrate incorporated into the cells was measured by way of counting the radioactivity incorporated thereinto.\nIn an experiment of incorporation of alanine by oocytes into which both asc-1 gene cRNA and 4F2hc gene cRNA of mouse were injected together, influence of the salt added to the medium was investigated.\nThe experiment of incorporation of alanine was carried out in accordance with the method mentioned in the above Example 2(1) using oocytes into which both asc-1 gene cRNA and 4F2hc gene cRNA of mouse were injected together. When the influence of sodium ion was checked however, a standard uptake solution (where 100 mM choline chloride was substituted with 100 mM sodium chloride) was used in place of the Na^+-free uptake solution as the uptake solution. When the influence of chlorine ion was checked, a gluconic acid uptake solution (where 100 mM sodium chloride was substituted with 100 mM sodium gluconate) was used in place of the standard uptake solution.\nIncorporation by asc-1 was investigated using various amino acids and analogs thereof as substrates. Experiment for incorporation of various amino acids and analogs thereof was carried out according to the method mentioned in the above Example 2(1) using oocytes into which asc-1 gene cRNA of mouse and 4F2hc gene cRNA of mouse were injected together. With regard to the substrates however, various compounds labeled with radioactivity were used in place of ^14C-alanine.\nInfluence of pH was checked in an experiment for incorporation of alanine by oocytes into which both asc-1 gene cRNA and 4F2hc gene cRNA of mouse were injected together. With regard to an experiment for incorporation of alanine, the method according to that mentioned in the above Example 2 (1) was carried out using oocytes into which both asc-1 gene cRNA of mouse and 4F2hc gene cRNA of mouse were injected together."}, "[3]": {"molecular_target": "T2, asc-1 of mouse (co-expressed with 4F2hc of mouse)", "assay": "Michaelis-Menten kinetic test of substrate incorporation by Xenopus oocytes co-expressing asc-1 and 4F2hc", "details": "ratio to the Vmax value for alanine (defined as 1.00)", "experimental": "as §1\nA Michaelis-Menten kinetic test was carried out for a sodium-independent small neutral amino acid transporter asc-1 which transports L- and D-amino acids. By checking the changes in the rate of incorporation of alanine due to the difference in concentration of the alanine substrate, the Michaelis-Menten kinetic test of asc-1 was carried out.\nAn experiment for the incorporation of alanine was carried out according to the method mentioned in the above Example 2(1) using the oocytes into which both asc-1 gene cRNA of mouse and 4F2hc gene cRNA of mouse were injected.\nWith regard to amino acids other than alanine which were used as substrates, a Michaelis-Menten kinetic was carried out as well in the same manner whereupon Km values and Vmax values were calculated. Each Vmax value in Table 1 was shown in terms of the ratio when the Vmax value of alanine was defined as 1.00."}}}
{"compound": "C[C@H](N)C(=O)O", "note": "[L-Alanine]", "values": [{"measurement": "release of injected 14C-labeled amino acid by extracellular alanine", "setting": "[1]", "value": "increase in release"}, {"measurement": "influence of pH on incorporation of alanine", "setting": "[2]", "value": "no significant dependency on pH"}, {"measurement": "influence of salt on incorporation of alanine", "setting": "[2]; choline changed to sodium, chlorine ion changed to gluconic acid ion", "value": "does no affect"}, {"measurement": "incorporation into the oocytes as substrate", "setting": "[2]", "value": "big incorporation"}, {"measurement": "transport by asc-1 (affinity in words)", "setting": "[2]", "value": "highly affinitive"}, {"measurement": "Vmax", "setting": "[3]", "value": "(1.00)"}]}
{"compound": "N[C@@H](CO)C(=O)O", "note": "[L-Serine]", "values": [{"measurement": "release of injected 14C-labeled amino acid by extracellular alanine", "setting": "[1]", "value": "increase in release"}, {"measurement": "incorporation into the oocytes as substrate", "setting": "[2]", "value": "big incorporation"}, {"measurement": "transport by asc-1 (affinity in words)", "setting": "[2]", "value": "highly affinitive"}, {"measurement": "Vmax", "setting": "[3]", "value": 1.02}]}
